As a reminder, the Ki is a measure of affinity in units of concentration, obtained from inhibition or displacement. Low values mean higher affinity, high ones lower affinity. By IC50 is commonly meant the concentration that gives 50% inhibition. Higher therefore signals weaker potency. The term EC50 denotes the concentration at which the effect is half-maximal. As usually defined, the Kd is the equilibrium constant for the complex coming apart.

Three compounds from ChEMBL document CHEMBL3576781, “Substituted Bis-THF Protease Inhibitors with Improved Potency against Highly Resistant Mature HIV-1 Protease PR20” (J Med Chem, 2015) can be followed below.

The structures appear in SMILES notation. The source made the active and inactive calls. The rule behind the calls is not given here.

One assay concerns the target Protease (Human immunodeficiency virus 1, UniProt Q9YQ12). Description: Inhibition of wild type HIV1 protease.
Assay [1] relates to Human immunodeficiency virus 1. Description: Antiviral activity against HIV1 by cell based MTT assay. It counts as functional, organism-based.
Assay [2] in a line: Inhibition of HIV1 protease PR20 mutant expressed in Escherichia coli BL21 (DE3) incubated for 5 mins followed by Abz-Thr-Ile-Nle-p-nitro-Phe-GlnArg-NH2 substrate addition and measured over 5 mins by microplate reader based assay. Details: species or system Human immunodeficiency virus 1.
Assay [3] deals with Human immunodeficiency virus 1. Description: Inhibition of N-terminal autoprocessing of transframe region-comprising HIV1 protease PR20 mutant precursor up to 100 uM by SDS-PAGE method.
For assay [4], the system named is Human immunodeficiency virus 1. Description: Antiviral activity against HIV1 LAI infected in human MT2 cells by MTT assay. In kind it is functional, organism-based. Conditions: Human immunodeficiency virus 1, LAI. (Formazan colour is commonly taken as a measure of viable cells.)
Assay [5] can be described thus: Binding affinity to HIV1 protease PR20 mutant expressed in Escherichia coli BL21 (DE3) assessed as ligand dissociation constant by ITC method. The arrangement: species or system Human immunodeficiency virus 1. A general note: Isothermal titration calorimetry measures the heat released or taken up as one component is titrated into another.

Protease, sequence (Q9YQ12 whole entry): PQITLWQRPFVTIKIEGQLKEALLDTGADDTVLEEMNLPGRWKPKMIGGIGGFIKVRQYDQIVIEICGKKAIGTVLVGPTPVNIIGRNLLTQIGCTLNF

For the compound `COc1ccc(S(=O)(=O)N(CC(C)C)C[C@@H](O)[C@H](Cc2ccccc2)NC(=O)O[C@H]2CO[C@H]3OC[C@H](OC)[C@H]32)cc1`, the Ki on Protease came to 0.0029 nM; in assay [2] it was 4.3 nM. The IC50 in assay [1] was determined as 2.4 nM. Moreover, the inhibition result in assay [3] was “inactive”.
`CC(C)CN(C[C@@H](O)[C@H](Cc1ccccc1)NC(=O)O[C@H]1CO[C@H]2OCC(F)(F)[C@H]21)S(=O)(=O)c1ccc(N)cc1`: the Ki on Protease came to 0.0058 nM; in assay [2] it was 1.7 nM. The compound also displayed an EC50 in assay [4] of 3 nM. Also, the inhibition result in assay [3] was “inactive”.
For `CC(C)CN(C[C@@H](O)[C@H](Cc1ccccc1)NC(=O)O[C@H]1CO[C@H]2OCC[C@H]21)S(=O)(=O)c1ccc(N)cc1`, the dissociation constant Kd in assay [5] came to 41 nM.
